According to ChEMBL document CHEMBL1201862, “PubChem BioAssay data set” (2004):
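Tested at 5 concentrations; 48 h exposure; 96-well plates; endpoints linearly interpolated, else capped at highest concentration. The concentration for 50% growth inhibition is given as GI50.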 Calls of active or inactive are those of the source. Rule as the data show it: active = GI50 up to about 1.1 µM and inactive = higher.

How the values were obtained:
Assay in all cases: inhibition of tumour cell growth, NCI panel, 48 h
[1] = test system: A549
[2] = test system: ACHN
[3] = test system: CCRF-CEM
[4] = test system: COLO 205
[5] = test system: HL-60
[6] = test system: KM12
[7] = test system: LOX IMVI
[8] = test system: MCF7
[9] = test system: MDA-MB-435
[10] = test system: MOLT-4
[11] = test system: NCI-H226
[12] = test system: NCI-H23
[13] = test system: NCI-H522
[14] = test system: SK-MEL-28
[15] = test system: SK-MEL-2
[16] = test system: SK-MEL-5
[17] = test system: SN12C
[18] = test system: SNB-75
[19] = test system: U-251
[20] = test system: UACC-257

Measured: GI50

COC(=O)c1ccccc1NC(=O)/C(=N\NC(C)(C)C)C(C#N)c1nc(-c2ccc([N+](=O)[O-])cc2)cs1 (stereo not drawn)
inactive: [1] > 100 µM | [2] > 100 µM | [3] > 100 µM | [4] > 100 µM | [5] > 100 µM | [6] > 100 µM | [7] > 100 µM | [8] > 100 µM | [9] > 100 µM | [10] > 100 µM | [11] > 100 µM | [12] > 100 µM | [13] > 10 µM | [14] > 100 µM | [15] > 100 µM | [16] > 100 µM | [17] > 100 µM | [18] > 100 µM | [19] > 100 µM | [20] > 100 µM

N=C1OC(CN2CCN(c3ccccc3)CC2)CN1C(=O)Nc1ccccc1 (stereo not drawn)
inactive: [1] > 100 µM | [2] > 100 µM | [3] 43.3 µM | [4] > 100 µM | [5] 53.5 µM | [6] > 100 µM | [7] > 100 µM | [8] > 100 µM | [9] > 100 µM | [10] > 100 µM | [11] > 100 µM | [12] > 100 µM | [13] 39.7 µM | [14] > 100 µM | [15] > 100 µM | [16] > 100 µM | [17] > 100 µM | [19] > 100 µM | [20] > 100 µM

CN(C)CCn1c(CO)nc2c1c(=O)n(C)c(=O)n2C
inactive: [1] > 100 µM | [2] > 100 µM | [3] > 100 µM | [4] > 100 µM | [5] > 100 µM | [6] > 100 µM | [7] > 100 µM | [8] > 100 µM | [9] > 100 µM | [11] > 100 µM | [12] > 100 µM | [13] > 100 µM | [14] > 100 µM | [15] > 100 µM | [16] > 100 µM | [17] > 100 µM | [18] > 100 µM | [19] > 100 µM | [20] > 100 µM

O=C(/C=C/c1ccc(O)cc1)NCCc1ccc(O)cc1 [N-P-COUMAROYL TYRAMINE]
inactive: [1] 4.06 µM | [2] 3.49 µM | [3] 2.99 µM | [4] > 12.5 µM | [5] 3.58 µM | [6] > 12.5 µM | [7] > 12.5 µM | [8] > 12.5 µM | [9] > 12.5 µM | [11] > 12.5 µM | [12] 7.16 µM | [13] 3.38 µM | [14] > 12.5 µM | [15] > 12.5 µM | [16] > 12.5 µM | [17] 5 µM | [19] > 12.5 µM | [20] > 12.5 µM

CC(=O)OCC(=O)O[C@@H]1[C@H]2[C@@H](OC(=O)c3ccccc3)[C@@H](C)C[C@]2(O)[C@H](OC(C)=O)[C@@]2(C)C[C@]1(OC(C)=O)C[C@H]1C(=O)C(C)(C)[C@@H](OC(C)=O)[C@@H]12
inactive: [1] 3.66 µM | [2] > 25 µM | [4] 4.75 µM | [5] 2.77 µM | [6] > 25 µM | [7] > 25 µM | [8] > 25 µM | [9] 10.8 µM | [10] > 5.14 µM | [11] > 25 µM | [12] > 25 µM | [13] > 25 µM | [14] > 25 µM | [15] > 25 µM | [16] 9.46 µM | [17] > 25 µM | [18] 7.71 µM | [19] > 25 µM | [20] > 25 µM

COc1cc([C@@H]2c3cc4c(cc3[C@H](OC3OC5COC(C(C)C)OC5C(O)C3O)C3COC(=O)[C@@H]32)OCO4)cc(OC)c1O (stereo partly drawn)
inactive: [1] 8.67 µM | [2] 3.51 µM | [3] 6.03 µM | [4] 6.82 µM | [5] 1.99 µM | [6] 16.1 µM | [7] 12.2 µM | [8] 3.6 µM | [9] 4.58 µM | [10] 3.17 µM | [11] 5.26 µM | [12] 4.03 µM | [13] 14 µM | [15] 17.3 µM | [16] 7.33 µM | [19] 2.53 µM | [20] 8.87 µM

COC(=O)c1c(C)c2c(c(C)c1C(=O)OC)-c1c(C)ccc3ccc(C)c-2c13
inactive: [1] 37.9 µM | [2] > 100 µM | [3] 11.4 µM | [4] 34.4 µM | [5] 5.08 µM | [6] 9.38 µM | [7] 12.1 µM | [8] > 78.3 µM | [9] > 83 µM | [10] 14.4 µM | [11] > 100 µM | [13] 31.2 µM | [14] 68.2 µM | [15] > 100 µM | [16] 13.1 µM | [17] > 93.8 µM | [18] 27.8 µM | [19] 58.9 µM | [20] > 54.5 µM

C[C@@H]1CC(=O)[C@@]2(C)[C@](O)(CCC3O[C@]32C)[C@@]12CC(c1ccoc1)OC2=O (stereo partly drawn)
inactive: [1] > 100 µM | [2] 70.6 µM | [3] 20.5 µM | [4] 65 µM | [5] 24.9 µM | [6] > 100 µM | [7] 35.2 µM | [8] 84.5 µM | [9] 42 µM | [10] 23 µM | [11] > 100 µM | [12] > 100 µM | [13] 45.6 µM | [14] > 100 µM | [15] > 100 µM | [16] 44.3 µM | [18] 23.7 µM | [19] > 100 µM | [20] > 100 µM

Cc1ccc(S(=O)(=O)N(CCN2C(=O)c3ccccc3C2=O)c2cc3c4c(c2)Oc2cc(N(CCN5C(=O)c6ccccc6C5=O)S(=O)(=O)c5ccc(C)cc5)cc5c2C4(C)c2c(cc(N(CCN4C(=O)c6ccccc6C4=O)S(=O)(=O)c4ccc(C)cc4)cc2O5)O3)cc1
inactive: [1] > 100 µM | [2] > 100 µM | [3] > 100 µM | [4] > 100 µM | [5] > 100 µM | [6] > 100 µM | [7] > 100 µM | [8] > 100 µM | [9] > 100 µM | [10] > 100 µM | [11] > 100 µM | [13] > 100 µM | [14] > 100 µM | [15] > 100 µM | [16] > 100 µM | [17] > 100 µM | [18] > 100 µM | [19] > 100 µM | [20] > 100 µM

COc1ccc(C2(CC(C)C)CCNC2)cc1OC (stereo not drawn)
inactive: [1] > 100 µM | [2] > 100 µM | [3] > 100 µM | [4] > 100 µM | [5] > 100 µM | [6] > 100 µM | [7] > 100 µM | [8] 84.1 µM | [9] > 100 µM | [11] > 100 µM | [12] 78.2 µM | [13] > 100 µM | [14] > 100 µM | [15] > 100 µM | [16] > 100 µM | [17] > 100 µM | [18] 8.18 µM | [19] > 100 µM | [20] > 100 µM
